# Reference: patent US11033527B2, “Non-hormonal treatment of the genitourinary syndrome of menopause” (IMMUGEN PHARMA LLC, priority 2018, dated 2021)
# How the values were obtained:
# EpiVaginal tissues = experiment: macrophage infiltration in treated EpiVaginal tissues (barrier function), four hours in the presence of TNF-α; assay type: cell-based; conditions: vs. 28% into the untreated tissue; macrophages cultured with the tissue for four hours in the presence of TNF-α
# Text: FIG. 1 is a graph showing macrophage infiltration in hormone (estrogen) and L759,633-treated EpiVaginal tissues. L759,633 had the most striking effect on macrophage infiltration: only 6% of cells infiltrated into the tissue past 90 μm (vs. 28% into the untreated tissue, p<0.006 ANOVA). […] U=untreated control; E=estradiol; P=progesterone; and IMG=the cannabinoid L759,633.
# Many of the above-noted genes are differentially regulated by estradiol in menopausal tissue. […] With respect to the barrier function, only 6% of macrophages which had been cultured with the tissue for four hours in the presence of TNF-α were capable of infiltrating into the tissue past 90 um (vs. 28% into the untreated tissue, p<0.006 ANOVA). […] This would indicate that the increased gene expression of the proteins involved with cross-linking of the keratin fibers, filagrins and desmosomal cadherins are all contributing to the fortification of the vaginal mucosa which would prevent the infiltration of pathogens and prevent the loss of solutes and water from within the tissue.
# vaginal tissue construct = experiment: microarray analysis of differential gene expression (Affymetrix Human Gene 1.0 ST arrays), tissues treated for seven days via culture medium; assay type: cell-based; conditions: for VEGFA Fold Change: gene vascular endothelial growth factor A
# Text: The data from the Affymetrix Human Gene 1.0 ST arrays were normalized using the Robust Multiarray Average (RMA) algorithm and a Chip Definition File (CDF) that maps the probes on the array to unique Entrez Gene identifiers. The result is a matrix in which each column corresponds to a sample. The expression values are log 2-transformed by default.
# By using a fold change >1.5, an analysis of differentially expressed genes was done to identify those genes which were involved in the cornified envelope, keratinocyte differentiation, cell differentiation, epidermis development, epithelial cell differentiation, junctional proteins and signaling, immune response and innate immune response.
structure (smiles),measurement,setting,value
"C[C@]12CC[C@@H]3c4ccc(O)cc4CC[C@H]3[C@@H]1CC[C@@H]2O [Estradiol, 17β-estradiol, reference compound]",macrophages infiltrated into the tissue past 90 μm,EpiVaginal tissues,16%
same,SPRR2D Fold Change,vaginal tissue construct,2.793 fold
same,WFDC12 Fold Change,vaginal tissue construct,3.103 fold
same,CD74 Expr Fold Change,vaginal tissue construct; gene CD74 molecule,−1.89 fold
same,CD244 Expr Fold Change,vaginal tissue construct; gene CD244 molecule,2.355 fold
same,CDSN Fold Change,vaginal tissue construct; gene Corneodesmosin,3.011 fold
same,CCL28 Expr Fold Change,vaginal tissue construct; gene C−C motif chemokine ligand 28,−1.948 fold
same,FYB1 Expr Fold Change,vaginal tissue construct; gene FYN binding protein 1,−2.225 fold
same,IFNE Fold Change,vaginal tissue construct; gene Interferon Epsilon,2.1 fold
same,NLRP10 Fold Change,vaginal tissue construct; gene NLR family pyrin domain containing 10,4.199 fold
same,RNAse7 Fold Change,vaginal tissue construct; gene RNAse family,3.387 fold
same,TNFRSF10C Expr Fold Change,vaginal tissue construct; gene TNF receptor superfamily member 10c,−2.162 fold
same,TGM1 Fold Change,vaginal tissue construct; gene Transglutaminase 1,1.406 fold
same,TGM3 Fold Change,vaginal tissue construct; gene Transglutaminase 3,15.681 fold
same,TGM5 Fold Change,vaginal tissue construct; gene Transglutaminase 5,1.135 fold
same,VTCN1 Expr Fold Change,vaginal tissue construct; gene V-set domain containing T cell activation inhibitor 1,−2.364 fold
same,WFDC5 Fold Change,vaginal tissue construct; gene WAP four-disulfide core domain 5,1.2 fold
same,ALOX12B Fold Change,"vaginal tissue construct; gene arachidonate 12-lipoxygenase, 12R type",2.207 fold
same,ALOXE3 Fold Change,vaginal tissue construct; gene arachidonate lipoxygenase 3,1.371 fold
same,CSF2RB Expr Fold Change,vaginal tissue construct; gene colony stimulating factor 2 receptor beta common subunit,1.517 fold
same,CNFN Fold Change,vaginal tissue construct; gene cornifelin,1.3 fold
same,DMKN Fold Change,vaginal tissue construct; gene dermokine,2.428 fold
same,DCS3 Fold Change,vaginal tissue construct; gene descmocollin 3,1.2 fold
same,DSC1 Fold Change,vaginal tissue construct; gene desmocollin 1,1.673 fold
same,DSC2 Fold Change,vaginal tissue construct; gene desmocollin 2,1.3 fold
same,DSG1 Fold Change,vaginal tissue construct; gene desmoglein 1,4.964 fold
same,FLG Fold Change,vaginal tissue construct; gene filaggrin,3.212 fold
same,FLG2 Fold Change,vaginal tissue construct; gene filaggrin family member 2,2.766 fold
same,KPRP Fold Change,vaginal tissue construct; gene human keratinocyte proline rich protein,5.557 fold
same,IL23A Expr Fold Change,vaginal tissue construct; gene interleukin 23 subunit alpha,2.912 fold
same,IL36A Expr Fold Change,vaginal tissue construct; gene interleukin 36 alpha,3.409 fold
same,IL36RN Expr Fold Change,vaginal tissue construct; gene interleukin 36 receptor antagonist,2.751 fold
same,KLK6 Fold Change,vaginal tissue construct; gene kallikrein related peptidase 6,2.769 fold
same,KLK8 Fold Change,vaginal tissue construct; gene kallikrein related peptidase 8,1.831 fold
same,KLK10 Fold Change,vaginal tissue construct; gene kallikrein related peptidase 10,2.043 fold
same,KLK12 Fold Change,vaginal tissue construct; gene kallikrein related peptidase 12,4.018 fold
same,KLK13 Fold Change,vaginal tissue construct; gene kallikrein related peptidase 13,4.626 fold
same,KRT1 Fold Change,vaginal tissue construct; gene keratin 1,1.949 fold
same,KRT2 Fold Change,vaginal tissue construct; gene keratin 2,1.214 fold
same,KRT20 Fold Change,vaginal tissue construct; gene keratin 20,−3.702 fold
same,KRT23 Fold Change,vaginal tissue construct; gene keratin 23,1.891 fold
same,KRT24 Fold Change,vaginal tissue construct; gene keratin 24,1.673 fold
same,KRTDAP Fold Change,vaginal tissue construct; gene keratinocyte differentiation associated protein,13.936 fold
same,LCE1A Fold Change,vaginal tissue construct; gene late cornified envelope 1A,1.307 fold
same,LCE1C Fold Change,vaginal tissue construct; gene late cornified envelope 1C,1.262 fold
same,LCE1F Fold Change,vaginal tissue construct; gene late cornified envelope 1F,1.317 fold
same,LCE2A Fold Change,vaginal tissue construct; gene late cornified envelope 2A,2.026 fold
same,LCE2B Fold Change,vaginal tissue construct; gene late cornified envelope 2B,1.89 fold
same,LCE2C/LCE2D Fold Change,vaginal tissue construct; gene late cornified envelope 2D,1.903 fold
same,LCE5A Fold Change,vaginal tissue construct; gene late cornified envelope 5A,1.454 fold
same,LIPM Fold Change,vaginal tissue construct; gene lipase family member M,3.572 fold
same,LIPN Fold Change,vaginal tissue construct; gene lipase family member N,4.57 fold
same,LIPN1 Fold Change,vaginal tissue construct; gene lipin 1,2.831 fold
same,LOR Fold Change,vaginal tissue construct; gene loricrin,1.207 fold
same,HLA-DPA1 Expr Fold Change,"vaginal tissue construct; gene major histocompatibility complex, class II, DP alpha 1",−1.8 fold
same,HLA-DRA Expr Fold Change,"vaginal tissue construct; gene major histocompatibility complex, class II, DR alpha",−2.234 fold
same,HLA-DRB6 Expr Fold Change,"vaginal tissue construct; gene major histocompatibility complex, class II, DR beta 6 (pseudogene)",−2.5 fold
same,MUCL1 Fold Change,vaginal tissue construct; gene mucin like 1,2.857 fold
same,PLA2G2F Fold Change,vaginal tissue construct; gene phospholipase A2 group IIF,1.824 fold
same,PLA2G3 Fold Change,vaginal tissue construct; gene phospholipase A2 group III,1.64 fold
same,PLA2G4D Fold Change,vaginal tissue construct; gene phospholipase A2 group IVD,2.046 fold
same,PLA2G4E Fold Change,vaginal tissue construct; gene phospholipase A2 group IVE,2.442 fold
same,PLA2G10 Fold Change,vaginal tissue construct; gene phospholipase A2 group X,−2.948 fold
same,SERPINB12 Fold Change,vaginal tissue construct; gene serpin family B member 12,1.3 fold
same,SPRR2G Fold Change,vaginal tissue construct; gene small proline rich protein 2G,4.664 fold
same,SPRR4 Fold Change,vaginal tissue construct; gene small proline rich protein 4,2.669 fold
same,SLC44A4 Fold Change,vaginal tissue construct; gene solute carrier family 44 member 4,−1.8 fold
same,SBSN Fold Change,vaginal tissue construct; gene suprabasin,3.449 fold
same,TLR3 Expr Fold Change,vaginal tissue construct; gene toll like receptor 3,−2.081 fold
same,TRPV3 Fold Change,vaginal tissue construct; gene transient receptor potential cation channel subfamily V member 3,1.6 fold
same,VEGFA Fold Change,vaginal tissue construct,1.2 fold
same,VEGFA Fold Change,vaginal tissue construct; listed as estradiol,2.2 fold
same,HLA-DMA expression,vaginal tissue construct; result in words,down-regulate
same,HLA-DMB expression,vaginal tissue construct; result in words,down-regulate
